The text below walks through data of patent publication US9040687B2, “Process for the preparaton of novel porphyrin derivatives and their use as PDT agents and fluorescence probes” (COUNCIL OF SCIENTIFIC AND IDUSTRIAL RESEARCH, priority 2010, dated 2015).

Assay in all cases: MTT assay, cytotoxicity by cellular proliferation
Common to all, as to type: cell-based

For experiment [1], the system named is Breast cancer cells (MDA MB 231). The note with it: Homo sapiens, cytotoxicity in the light. As for the experimental part: [Worded in the source for another cell line; this cell line is reported under the same test.] (§1) 3, (4,5-Dimethylthiazol-2-yl)-2,5-diphenyltetrazolium bromide (MTT) assay is a standard colorimetric assay for measuring cellular proliferation (cell growth). It was used to determine cytotoxicity of the porphyrin derivatives of the general formulae 1. Human cervical oral cancer cells (SCCl31 cells) (5×10^3 cells well^−1) were added to wells of two 96 well microtiter plate. One for dark cytotoxicity and another for light cytotoxicity with 150 μL DMEM (Dulbecco's Modified Eagle Medium) with 10% serum and incubated for 24 h. Then added 3.125 to 25 μM of porphyrin derivatives of the general formulae 1 in serial dilution (stock 100 mM diluted using DPBS (Dulbecco's Phosphate Buffered Saline) for test, 0.025% DMSO (dimethyl sulphoxide) for control and incubated for 3 h and irradiated in one plate using sodium vapor lamp (70 w for 15 min) while the other plate was kept in dark. After photoirradiation, DPBS was aspirated and 150 μL DMEM with 10% serum was added to each well and incubated is for 48 h. After 48 h of incubation, removed the plates from the incubator and added 10 µL of MIT (5 mg/ml stock) to each well of the plate. […] Read the absorbance at 570 nm. Percentage growth inhibition was calculated as % Growth inhibition=(control-test)/control)×100 […]

For experiment [2], the system named is HaCaT. The conditions noted are these: Homo sapiens, cytotoxicity in the light.
The subject of experiment [3] is MCF 7. The conditions noted are these: Homo sapiens, MCF7, cytotoxicity in the light.
For experiment [4], the system named is oral cancer cells (SCC 131). The note with it: Homo sapiens, SCC131, cytotoxicity in the light. As for the experimental part:
as §1

Experiment [5] concerns SCC 172. The conditions noted are these: SCC172, cytotoxicity in the light.
Experiment [6] has as its system HeLa. The note with it: Homo sapiens, cytotoxicity in the light.
The test system of experiment [7] is Mia PaCa. The note with it: Homo sapiens, MIA PaCa-2, cytotoxicity in the light.
The subject of experiment [8] is HCT 116. The conditions noted are these: Homo sapiens, cytotoxicity in the light.
Experiment [9] relates to SiHa. The conditions noted are these: Homo sapiens, cytotoxicity in the light.

Regarding `Oc1cccc(-c2c3nc(c(-c4cccc(O)c4)c4ccc([nH]4)c(-c4cccc(O)c4)c4nc(c(-c5cccc(O)c5)c5ccc2[nH]5)CC4)C=C3)c1` [FOSCAN, 5, 10, 15, 20-tetrakis (meta-hydroxyphenyl)-chlorin, reference compound], the IC50 amounted to 13.5 µM in experiment [1]; 8 µM in experiment [2]; 13 µM in experiment [3]; 16 µM in experiment [4]; 12.5 µM in [5]; 22 µM in [6]. Besides, the IC50 was 11 µM in experiment [7], 9 µM in experiment [8] and 22.5 µM in experiment [9].
